Where two headings read alike, the source gives them in different places.
Key:
Assay in all cases: Broth two-fold serial dilution MIC test
Escherichia coli = assay type: cell-based, Escherichia coli (ATCC 11229); details: Ecol
Source text: (§1) A minimum inhibitory concentration (MIC) value is obtained using a broth, two-fold serial dilution test performed as follows: A stock solution or dispersion of the test compound, typically at a concentration of 1%, is made in a 5:3:2 solvent solution of acetone. methanol, and water. A volume of the stock solution is dispensed into culture media to give an initial starting test concentration of 500 ppm compound.
(§2) When the test is ready to be done, each vessel in the dilution series, except the first vessel, contains an equal volume of compound free broth. The first vessel contains twice the volume of broth with the starting concentration of test compound. One half of the broth from the first vessel is transferred to the second vessel- After being mixed, one half the resulting volume is removed from the second vessel and transferred to the third vessel. The entire cycle is repeated sufficiently to give a series of concentrations amounting to 500, 250, 125, 63, 31, 16, 8, and 4, 2, 1, 0.5, 0.25 ppm respectively.
(§3) Each vessel is then inoculated with a cell suspension of the appropriate test organism. Bacteria are grown in broth, fungi on agar slants for a time and at a temperature appropriate to the species being tested, and algae are a mixture of green algae and blue-green bacteria grown in a nutrient media. At the end of the growth period, in the case of bacteria, the broth is vortexed to disperse the cells.
(§4) In the case of fungi, the spores are harvested by pipetting water onto the slant and dislodging the spores with a sterile loop. The cell/spore suspension is standardized by controlling incubation time, temperature, and the volume of the diluent. The suspension is then used to inoculate the vessels containing the broth compound.
(§5) The vessels are then incubated at the appropriate temperature. After the incubation, the vessels are examined for growth/no growth. The minimum inhibitory concentration (MIC) is defined as the lowest concentration of compound that results in complete inhibition of growth of the test organism.

Pseudomonas aeruginosa = assay type: cell-based, Pseudomonas aeruginosa (ATCC 15442); details: Psae
Source text: as §1, §2, §3, §4, §5
1. Pseudomonas aeruginosa

Staphylococcus aureus = assay type: cell-based, Staphylococcus aureus (ATCC 6538); details: Saur
Source text: as §1, §2, §3, §4, §5
2. Staphylococcus aureus

Aspergillus niger = assay type: cell-based, Aspergillus niger (ATCC 6275); details: Anig, TSB media
Source text: as §1, §2, §3, §4, §5
4. Aspergillus niger 6275 Anig

[1] = Escherichia coli, Table 2, TSB media, read-out: MIC
[2] = Pseudomonas aeruginosa, Table 2, M9G media, read-out: MIC
[3] = Pseudomonas aeruginosa, Table 2, TSB media, read-out: MIC
[4] = Staphylococcus aureus, Table 2, M9G media, read-out: MIC
[5] = Staphylococcus aureus, Table 2, TSB media, read-out: MIC
[6] = Aspergillus niger, Table 2, read-out: MIC
[7] = Escherichia coli, Table 2, M9G media, read-out: MIC
[8] = Pseudomonas aeruginosa, Table 3 comparison, M9G media, read-out: MIC
[9] = Pseudomonas aeruginosa, Table 3 comparison, TSB media, read-out: MIC
[10] = Staphylococcus aureus, Table 3 comparison, M9G media, read-out: MIC
[11] = Staphylococcus aureus, Table 3 comparison, TSB media, read-out: MIC
[12] = Aspergillus niger, Table 3 comparison, read-out: MIC

Row | MIC (Escherichia coli; [1]) [µg/mL] | MIC (Pseudomonas aeruginosa; [2]) [µg/mL] | MIC (Pseudomonas aeruginosa; [3]) [µg/mL] | MIC (Staphylococcus aureus; [4]) [µg/mL] | MIC (Staphylococcus aureus; [5]) [µg/mL] | MIC (Aspergillus niger; [6]) [µg/mL] | MIC (Escherichia coli; [7]) [µg/mL] | MIC (Escherichia coli; Table 2, TSB media) [ppm] | SMILES | further results
1 | > 250 | > 250 | 125 | 16 | 32 | > 250 |  |  | OCC[N+]1(CC#CI)CCCC1 [Compound 1, 1-(2-hydroxyethyl)-1-(3-iodopropargyl)-pyrrolidinium 4-methylbenzenesulfonate] | 
2 | > 500 | > 500 | > 500 | 500 | > 500 | > 500 |  |  | OCCCCCCCC[N+]1(CC#CI)CCCC1 [Compound 3, 1-(8-hydroxyoctyl)-1-(3-iodopropargyl)-pyrrolidinium 4-methylbenzenesulfonate] | 
3 | 500 | > 500 | > 500 | 500 | 500 | 250 | > 500 |  | OCCCCCCC[N+]1(CC#CI)CCCC1 [Compound 4, 1-(7-hydroxyheptyl)-1-(3-iodopropargyl)-pyrrolidinium 4-methybenzenesulfonate] | 
4 |  | 500 | > 500 | 250 | 250 | 500 |  | 250 | CCCC[N+]1(CC#CI)CCCC1 [Compound 9, 1-butyl-1-(3-iodopropargyl)-pyrrolidinium 4-methylbenzenesulfonate] | MIC (Escherichia coli; Table 2, M9G media): 500 ppm
5 |  | 250 | 500 |  |  | 4 |  | 32 | CCCCCCCCCC[N+]1(CC#CI)CCCC1 [Compound 11] | MIC (Escherichia coli; Table 2, M9G media): 16 ppm; MIC (Staphylococcus aureus; Table 2, M9G media): 2 ppm; MIC (Staphylococcus aureus; Table 2, TSB media): 16 ppm
6 | 63 | 500 | > 500 | 2 | 16 | 16 | 32 |  | CCCCCCCC[N+]1(CC#CI)CCCC1 [Compound 12, 1-octyl-1-(3-iodopropargyl)-pyrrolidinium 4-methylbenzenesulfonate] | 
7 | 125 | 500 | 500 | 16 | 16 | 250 | 250 |  | CCCCCC[N+]1(CC#CI)CCCC1 [Compound 14, 1-hexyl-1-(3-iodopropargyl)-pyrrolidinium 4-methylbenzenesulfonate] | 
8 | 250 | 250 | 125 | 32 | 32 | 125 |  |  | C[N+]1(CC#CI)CCCCC1 [Compound 17, 1-Methyl-1-(3-Iodopropargyl)-Piperidinium 4-Methylbenzenesulfonate] | MIC (Escherichia coli; Escherichia coli, Table 3 comparison, TSB media, read-out: MIC): 250 µg/mL; MIC (Pseudomonas aeruginosa; [8]): 250 µg/mL; MIC (Pseudomonas aeruginosa; [9]): 125 µg/mL; MIC (Staphylococcus aureus; [10]): 32 µg/mL; MIC (Staphylococcus aureus; [11]): 32 µg/mL; MIC (Aspergillus niger; [12]): 125 µg/mL
9 | 250 | 250 | 125 | 16 | 32 | 250 |  |  | OCC[N+]1(CC#CI)CCCCC1 [Compound 18, 1-(2-hydroxyethyl)-1-(3-iodopropargyl)-piperidinium 4-methylbenzenesulfonate] | 
10 | > 250 | > 250 | > 250 | > 250 | > 250 | 63 |  |  | OCCCCCCCCC[N+]1(CC#CI)CCCCC1 [Compound 21, 1-(9-hydroxynonyl)-1-(3-iodopropargyl)-piperidinium 4-methylbenzenesulfonate] | 
11 | > 250 | > 250 | > 250 | > 250 | > 250 | 16 |  |  | CCOC(=O)CC[N+]1(CC#CI)CCCCC1 [Compound 22, 1-(2-ethoxycarbonylethyl)-1-(3-iodopropargyl)-piperidinium 4-methylbenzenesulfonate] | 

Further lines, the compound ahead of its results:

Row | SMILES | MIC (Escherichia coli; [1]) [µg/mL] | MIC (Pseudomonas aeruginosa; [2]) [µg/mL] | MIC (Pseudomonas aeruginosa; [3]) [µg/mL] | MIC (Staphylococcus aureus; [4]) [µg/mL] | MIC (Staphylococcus aureus; [5]) [µg/mL] | MIC (Aspergillus niger; [6]) [µg/mL] | MIC (Escherichia coli; [7]) [µg/mL] | MIC (Escherichia coli; Table 2, TSB media) [ppm] | further results
12 | OCCCCCCCCCCCC[N+]1(CC#CI)CCCC1 [Compound 2, 1-(12-hydroxydodecyl)-l-(3-iodopropargyl)-pyrrolidinium 4-methylbenzenesulfonate] | 250 | > 250 | > 250 | 32 | 32 | 32 |  |  | 
13 | OCCCCCCCCC[N+]1(CC#CI)CCCC1 [Compound 5, 1-(9-hydroxynonyl)-1-(3-iodopropargyl)-pyrrolidinium 4-methylbenzenesulfonate] | > 500 | > 500 | > 500 | 63 | 63 | 250 | > 500 |  | 
14 | CCCCCCCCCCCCCC[N+]1(CC#CI)CCCC1 [Compound 6, 1-Tetradecyl-1-(3-Iodopropargyl)-Pyrrolidinium 4-Methylbenzenesulfonate] |  |  |  | 0.5 | 0.5 |  |  | 4 | MIC (Escherichia coli; Table 2, M9G media): 4 ppm; MIC (Escherichia coli; Table 3 comparison, M9G media): 4 ppm; MIC (Escherichia coli; Table 3 comparison, TSB media): 4 ppm; MIC (Pseudomonas aeruginosa; [8]): 4 µg/mL; MIC (Pseudomonas aeruginosa; [9]): 4 µg/mL; MIC (Pseudomonas aeruginosa; Table 2, M9G media): 4 ppm; MIC (Pseudomonas aeruginosa; Table 2, TSB media): 4 ppm; MIC (Staphylococcus aureus; [10]): 0.5 µg/mL; MIC (Staphylococcus aureus; [11]): 0.5 µg/mL; MIC (Aspergillus niger; [12]): < 0.25 µg/mL; MIC (Aspergillus niger; Table 2): < 0.25 ppm
15 | CCCCCCCCCCCCCCCC[N+]1(CC#CI)CCCC1 [Compound 7, 1-hexadecyl-1-(3-iodopropargyl)-pyrrolidinium 4-methylbenzenesulfonate] |  |  |  | < 0.25 | < 0.25 |  | 4 | 2 | MIC (Pseudomonas aeruginosa; Table 2, M9G media): 4 ppm; MIC (Pseudomonas aeruginosa; Table 2, TSB media): 8 ppm; MIC (Aspergillus niger; Table 2): 1 ppm
16 | CCCCCCCCCCCCC[N+]1(CC#CI)CCCC1 [Compound 8, 1-tridecyl-1-(3-iodopropargyl)-pyrrolidinium 4-methylbenzenesulfonate] |  | 16 |  | 0.5 |  | 1 | 2 | 4 | MIC (Pseudomonas aeruginosa; Table 2, TSB media): 16 ppm; MIC (Staphylococcus aureus; Table 2, TSB media): 1 ppm
17 | CCCCCCCCCCCCCCC[N+]1(CC#CI)CCCC1 [Compound 10, 1-pentadecyl-1-(3-iodopropargyl)-pyrrolidinium 4-methylbenzenesulfonate] |  |  |  | < 0.25 |  | < 0.25 |  | 32 | MIC (Escherichia coli; Table 2, M9G media): 4 ppm; MIC (Pseudomonas aeruginosa; Table 2, M9G media): 8 ppm; MIC (Pseudomonas aeruginosa; Table 2, TSB media): 250 ppm; MIC (Staphylococcus aureus; Table 2, TSB media): 1 ppm
18 | CCCCCCCCCCCC[N+]1(CC#CI)CCCC1 [Compound 13, 1-dodecyl-1-(3-iodopropargyl)-pyrrolidinium 4-methylbenzenesulfonate] |  | 32 |  |  |  |  |  | 32 | MIC (Escherichia coli; Table 2, M9G media): 32 ppm; MIC (Pseudomonas aeruginosa; Table 2, TSB media): 250 ppm; MIC (Staphylococcus aureus; Table 2, M9G media): 1 ppm; MIC (Staphylococcus aureus; Table 2, TSB media): 16 ppm; MIC (Aspergillus niger; Table 2): 16 ppm
19 | CCCCCCCCCCC[N+]1(CC#CI)CCCC1 [Compound 15, 1-undecyl-1-(3-iodopropargyl)-pyrrolidinium 4-methylbenzenesulfonate] | 2 | 32 | 32 | 0.25 | 0.25 | 16 | 1 |  | 
20 | CCCCCCCCCCCCCCCCCC[N+]1(CC#CI)CCCC1 [Compound 16, t-octadecyl-1-(3-iodopropargyl)-pyrrolidinium 4-methylbenzenesulfonate] | 63 | 500 | 500 | 1 | 1 | 32 | 16 |  | 
21 | OCCCCCCCCCCC[N+]1(CC#CI)CCCCC1 [Compound 19, 1-(11-hydroxyundecyl)-1-(3-iodopropargyl)-piperidinium 4-methylbenzenesulfonate] | 32 | 250 | 250 | 2 | 16 | 32 |  |  | 
22 | OCCCCCCCCCCCC[N+]1(CC#CI)CCCCC1 [Compound 20, 1-(12-hydroxydodecyl)-1-(3-iodopropargyl)-piperidinium 4-methylbenzenesulfonate] | 250 | > 250 | > 250 | 8 | 63 | 125 |  |  | 

— patent US5354862A, “Preparation and the use of halopropargylated cyclic quaternary ammonium compounds as antimicrobial agents” (Rohm and Haas Company, priority 1993, dated 1994)
